Measurements reported in patent US10640545B2 (THE GOVERNORS OF THE UNIVERSITY OF ALBERTA, priority 2017, dated 2020).
*1 amine or outer side, *2 acyl side, *3 side chain or, on linkers, in order; H or OH if unused. Where a SMILES comes first, the peptide text is derived from it. [ ]: non-standard residue; d: D form. Phe(4-Br) = N[C@@H](Cc1ccc(Br)cc1)C(=O)O; X1 = N=C(N)NCCCN(N[*:1])C(=O)[*:2]; azaLeu = CC(C)CN(N[*:1])C(=O)[*:2]; Nle = CCCC[C@H](N)C(=O)O; Aib = CC(C)(N)C(=O)O

Columns and labels:
[1] = biological target: T1, wild-type rat apelin receptor (Rattus norvegicus, UniProt Q9JHG3); assay: Radioligand binding, displacement of [125I]-pyr-1-apelin-13 on CHO cell membranes; settings: for receptor binding affinity (in words): rat apelin receptor
T1 construct: expressed in transfected cells
T1 sequence (Q9JHG3 1-377): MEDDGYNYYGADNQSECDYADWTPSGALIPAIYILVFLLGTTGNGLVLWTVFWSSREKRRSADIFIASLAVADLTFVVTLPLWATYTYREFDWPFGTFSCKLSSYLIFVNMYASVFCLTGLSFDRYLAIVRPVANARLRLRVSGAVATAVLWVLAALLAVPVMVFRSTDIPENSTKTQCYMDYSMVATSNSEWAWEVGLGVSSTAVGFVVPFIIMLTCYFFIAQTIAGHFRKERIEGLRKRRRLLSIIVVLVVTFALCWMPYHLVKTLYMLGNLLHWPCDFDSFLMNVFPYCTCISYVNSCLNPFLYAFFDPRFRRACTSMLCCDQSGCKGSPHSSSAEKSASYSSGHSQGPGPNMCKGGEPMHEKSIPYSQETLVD
Method: This experiment evaluated the ability of peptides of the present embodiments to bind to the wild-type rat apelin receptor, in order to examine the impact of synthetic modification within the critical RPRL motif of the apelin peptides.
Membrane preparations from CHO cells stably expressing the wild-type rat apelin receptor-EGFP were prepared as previously described (Gerbier et al., New Structural Insights Into The Apelin Receptor: Identification Of Key Residues For Apelin binding; FASEB J. 2015, 29, 314-322; Iturrioz et. al., Development Of Original Metabolically-Stable Apelin-17 Peptides With Diuretic And Cardiovascular Effects; FASEB J. 2017, 31, 687-700.) Crude membrane preparations (1 μg total mass of membranes/assay) were incubated for 3 h at 20° C. with 0.2 nM [^125I]-pyr-1-apelin-13 (monoiodinated on Lys^8 with Bolton-Hunter reagent, Perkin Elmer, Wellesley, Mass., USA) in binding buffer (50 mM HEPES, 5 mM MgCl2 1149 pH 7.5, BSA 1%) alone or in presence of the different compounds at various concentrations. The reaction was stopped by adding 4 mL of cold binding buffer, filtered on Whatman GF/C filters and washed with 5 mL of cold binding buffer. Radioactivity was then counted using a Wizard 1470 Wallac gamma counter (Perkin Elmer, Turku, Finland). Binding experiment data were analyzed with Graph Pad Prism.

anesthetized mice = assay: Blood pressure assay in anesthetized mice; type: in vivo; settings: 1.4 μM/kg body weight injected, SBP, DBP, MABP
Method: Synthetic peptides 8-19 were tested for blood pressure lowering abilities in anesthetized mice. Apelin peptides were injected through […], monitoring blood pressure (BP) and heart rate (HR) over 60 minutes.
Mice were anaesthetized with 1.5% isoflurane/oxygen, and body temperature was monitored and maintained at 36° C. by a heating pad. The aorta was cannulated via the right carotid artery using a PV loop catheter (Model 1.2F from Scisense, Transonic) in order to continuously record arterial blood pressure and heart rate (LabScribe 2.0, Scisense). […] Results are reported as systolic blood pressure (SBP), diastolic blood pressure (DBP), mean arterial blood pressure (MABP) and heart rate (HR).
Apelin peptides 11, 56-59 as well as the KLKB1-cleavage fragments 54 and 55 were tested for blood pressure lowering abilities in anesthetized mice.
Mice were anesthetized with 1.5% isoflurane/oxygen, and body temperature was monitored and maintained at 36° C. by a heating pad. The aorta was cannulated via the right carotid artery using a PV loop catheter (model 1.2F from Scisense, Transonic) in order to continuously record arterial blood pressure and heart rate (LabScribe 2.0, Scisense). Compounds 11, and 54-59 or 55-59 (1.4 μM/kg body weight) or the same volume of saline was injected via the right jugular vein. Results are reported as systolic blood pressure (SBP), diastolic blood pressure (DBP), mean arterial blood pressure (MABP), and heart rate (HR) shown in FIGS. 15A-D.
Apelin peptides were delivered systemically via the right internal jugular vein while blood pressure (BP) and heart rate (HR) were continuously monitored in the aorta cannulated via the right carotid artery. All N-terminally extended apelin peptides, except 58, show pronounced and time-stable blood pressure lowering effects (FIGS. 15a-d). […] This correlates with the results obtained from the Ca^2+ mobilization assay.

isolated rat hearts = assay: Langendorff isolated heart, ischemia-reperfusion injury; settings: ex vivo heart, 30 min ischemia; for ability to rescue the heart from ischemic reperfusion injury: peptide at start of reperfusion for 10 min at 1 pM; for max/min dP/dt, LVDP and RPP compared to native isoform 2: reperfusion
Method: The ex vivo heart was assessed for a variety of parameters (heart rate (HR); left ventricle developed pressure (LVDP); maximum derivative of change in systolic pressure over time (max dP/dt); minimum derivative of change in diastolic pressure over time (min dP/dt); and rate-pressure product (RPP)) indicative of general heart function and performance (FIG. 11).
Langendorff heart perfusion and ischemia-reperfusion injury were prepared and cardiac function was measured. Mice were heparinized and anaesthetized with 1.5-2% isoflurane inhalation. The heart was excised, mounted on a Langendorff system, and perfused at a consistent pressure of 80 mmHg with modified Krebs-Henseleit solution (116 mM NaCl, 3.2 mM KCl, 2.0 mM CaCl2), 1.2 mM MgSO4, 25 mM NaHCO3, 1.2 mM KH2PO4, 11 mM glucose, 0.5 mM EDTA and 2 mM pyruvate), which was kept at 37° C. and continuously oxygenated with 95% O2 and 5% CO2 which maintained the perfusion buffer at pH 7.4. After stabilization and 10 min baseline recording, global ischemia was induced for 30 min followed by 40 min of reperfusion. Apelin 17 (2) or apelin peptides (11, 17, 18, or 19) were given at the start of reperfusion for 10 min at a concentration of 1 pM. Left ventricular functions were obtained continuously by PowerLab system (ADInstruments, Australia). Data was reported as mean value of every 5 min. Left ventricular functions were reported as: Left Ventricular Developed Pressure (LVDP); Heart rate (HR); maximum derivative of change in systolic pressure over time (max dP/dt); minimum derivative of change in diastolic pressure over time (min dP/dt); and Rate Pressure Product (RPP).

in vitro = settings: human, plasma
NEP = NEP (Homo sapiens, UniProt P08473); assay: Neprilysin inhibition assay (degradation of 1 after preincubation with peptide); type: biochemical; parameters: purchased Sino Biological; settings: preincubation of NEP with equimolar peptide
Chain of NEP (P08473 whole entry): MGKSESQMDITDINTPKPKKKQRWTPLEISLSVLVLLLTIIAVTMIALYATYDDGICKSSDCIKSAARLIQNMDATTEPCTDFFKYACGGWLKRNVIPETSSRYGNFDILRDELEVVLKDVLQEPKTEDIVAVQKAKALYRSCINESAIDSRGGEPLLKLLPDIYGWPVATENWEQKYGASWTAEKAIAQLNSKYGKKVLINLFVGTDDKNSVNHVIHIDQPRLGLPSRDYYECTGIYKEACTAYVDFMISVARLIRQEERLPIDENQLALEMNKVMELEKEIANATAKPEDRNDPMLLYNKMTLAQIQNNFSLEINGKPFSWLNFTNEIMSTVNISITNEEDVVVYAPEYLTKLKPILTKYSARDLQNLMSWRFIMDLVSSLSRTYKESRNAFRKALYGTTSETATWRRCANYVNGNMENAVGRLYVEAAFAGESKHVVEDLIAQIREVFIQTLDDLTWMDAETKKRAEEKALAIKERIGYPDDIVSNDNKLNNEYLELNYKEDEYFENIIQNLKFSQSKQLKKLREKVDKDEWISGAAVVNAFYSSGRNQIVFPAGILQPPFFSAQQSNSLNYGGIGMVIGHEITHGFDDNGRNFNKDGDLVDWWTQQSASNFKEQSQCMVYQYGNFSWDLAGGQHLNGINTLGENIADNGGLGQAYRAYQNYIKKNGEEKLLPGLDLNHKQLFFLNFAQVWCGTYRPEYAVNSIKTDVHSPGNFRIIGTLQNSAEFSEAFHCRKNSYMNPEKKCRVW
Method: This experiment investigates the ability of synthetic peptides 8-19 to inhibit the inherent proteolytic activity of NEP.
Assays were performed in duplicate (n=2) for each time point.

Compound | receptor binding affinity (in words) [1] | blood pressure lowering (hypotensive) effect (anesthetized mice) | ability to rescue the heart from ischemic reperfusion injury (isolated rat hearts) | max/min dP/dt, LVDP and RPP compared to native isoform 2 (isolated rat hearts) | remaining at 0.5 h, 80 µM (in vitro) [%] | remaining at 1 h, 80 µM (in vitro) [%] | inhibition of the proteolytic activity of NEP (NEP) | Ki ([1]; displacement of [125I]-pyr-1-apelin-13 (0.2 nM), CHO membranes, rat apelin receptor-EGFP, means ± SE, read-out: Affinity Ki) [nM]
CCCC[C@H](NC(=O)[C@@H]1CCCN1C(=O)CNC(=O)[C@H](CCCCN)NC(=O)[C@H](Cc1c[nH]cn1)NC(=O)[C@H](CO)NC(=O)N(CC(C)C)NC(=O)[C@H](CCCNC(=N)N)NC(=O)[C@@H]1CCCN1C(=O)[C@H](CCCNC(=N)N)NC(=O)[C@H](CCC(N)=O)NC(=O)[C@H](CCCNC(=N)N)NC(=O)[C@H](CCCNC(=N)N)NC(=O)[C@H](Cc1ccccc1)NC(=O)[C@@H](N)CCCCN)C(=O)NC(C)(C)C(=O)N[C@@H](Cc1ccc(Br)cc1)C(=O)O [Peptide 19] (H-KFRRQRPR[azaLeu]SHKGP[Nle][Aib][Phe(4-Br)]-OH; N-terminus and C-terminus assumed) | sub-nanomolar receptor affinities | potent hypotensive activity that rivaled or bested that of native 2 or A2 variant 5 | equivalent ability to rescue the heart from ischemic reperfusion injury compared to native isoform 2 | slight improvement over the native isoform | 82 ± 1 | 68 ± 4 | no ability to inhibit the inherent activity of NEP | 
CCCC[C@H](NC(=O)[C@@H]1CCCN1C(=O)CNC(=O)[C@H](CCCCN)NC(=O)[C@H](Cc1c[nH]cn1)NC(=O)[C@H](CO)NC(=O)[C@H](CC(C)C)NC(=O)N(CCCNC(=N)N)NC(=O)[C@@H]1CCCN1C(=O)[C@H](CCCNC(=N)N)NC(=O)[C@H](CCC(N)=O)NC(=O)[C@H](CCCNC(=N)N)NC(=O)[C@H](CCCNC(=N)N)NC(=O)[C@H](Cc1ccccc1)NC(=O)[C@@H](N)CCCCN)C(=O)NC(C)(C)C(=O)N[C@@H](Cc1ccc(Br)cc1)C(=O)O [Peptide 17, Lys-Phe-Arg-Arg-Gln-Arg-Pro-azaArg-Leu-Ser-His-Lys-Gly-Pro-Nle-Aib-paraBrPhe] (H-KFRRQRP[X1]LSHKGP[Nle][Aib][Phe(4-Br)]-OH; N-terminus and C-terminus assumed) | sub-nanomolar receptor affinities | potent hypotensive activity that rivaled or bested that of native 2 or A2 variant 5 | equivalent ability to rescue the heart from ischemic reperfusion injury compared to native isoform 2 | behaving very analogously to 2 | 96 ± 6 | 94 ± 3 | no ability to inhibit the inherent activity of NEP | 0.14 ± 0.009
